Measured values reported in patent US20220143042A1, “FUSED GLYCOSIDASE INHIBITORS” (Asceneuron SA, priority 2019, published 2022).

Biological target: T1, His-Tagged hOGA (Homo sapiens, UniProt O60502)
T1 sequence (O60502 1-916): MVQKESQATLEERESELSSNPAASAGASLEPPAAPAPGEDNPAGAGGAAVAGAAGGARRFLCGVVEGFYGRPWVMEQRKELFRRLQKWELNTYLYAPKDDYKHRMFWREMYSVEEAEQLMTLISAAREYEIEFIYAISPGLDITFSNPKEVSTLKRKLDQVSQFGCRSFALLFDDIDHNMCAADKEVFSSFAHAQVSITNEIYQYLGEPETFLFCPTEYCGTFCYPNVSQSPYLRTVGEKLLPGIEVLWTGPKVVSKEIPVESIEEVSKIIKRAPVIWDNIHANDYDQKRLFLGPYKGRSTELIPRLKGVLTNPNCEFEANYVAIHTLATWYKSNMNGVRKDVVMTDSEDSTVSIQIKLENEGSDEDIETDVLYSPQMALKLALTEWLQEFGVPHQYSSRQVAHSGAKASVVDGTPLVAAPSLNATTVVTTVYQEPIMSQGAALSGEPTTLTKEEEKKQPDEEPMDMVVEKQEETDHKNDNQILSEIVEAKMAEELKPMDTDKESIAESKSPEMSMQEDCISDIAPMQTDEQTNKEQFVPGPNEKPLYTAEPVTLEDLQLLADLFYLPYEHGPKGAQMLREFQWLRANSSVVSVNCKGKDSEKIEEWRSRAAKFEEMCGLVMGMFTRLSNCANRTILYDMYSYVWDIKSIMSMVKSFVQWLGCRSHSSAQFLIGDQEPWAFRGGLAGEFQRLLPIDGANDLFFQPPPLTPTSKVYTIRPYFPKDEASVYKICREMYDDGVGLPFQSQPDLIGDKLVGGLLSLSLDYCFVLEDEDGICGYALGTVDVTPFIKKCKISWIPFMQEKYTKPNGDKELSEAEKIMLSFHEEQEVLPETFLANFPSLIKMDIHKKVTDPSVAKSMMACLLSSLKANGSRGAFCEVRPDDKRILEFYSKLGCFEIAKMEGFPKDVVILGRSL
Experiment: Human O-GlcNAcase enzyme inhibition assay
Format: biochemical
Details: OGA enzyme inhibition assay; FL-GlcNAc substrate, 60 min at room temperature, pH 6.5
Method: EXAMPLE B01: HUMAN O-GLCNACASE ENZYME INHIBITION ASSAY
5 μl of the appropriate concentration of a solution of inhibitor in Mcllvaine's Buffer (pH 6.5) in 2% DMSO (for a dose response curve calculation) is added into each well of a 384-well plate (Greiner, 781900). Then, 20 nM of His-Tagged hOGA and 10 μM of FL-GlcNAc (Fluorescein mono-beta-D-(2-deoxy-2-N-acetyl) glucopyranoside; Marker Gene Technologies Inc, M1485) were added to the 384-well plate for a final volume of 20 μl. After incubation for 60 min at room temperature, the reaction was terminated by the addition of 10 μL of stop buffer (200 mM glycine, pH 10.75). The level of fluorescence (λexc 485 nm; (λemm 520 nm) was read on a PHERAstar machine. The amount of fluorescence measured was plotted against the concentration of inhibitor to produce a sigmoidal dose response curve to calculate an IC50. All individual data was corrected by subtraction of the background (Thiamet 3 uM=100% inhibition) whilst 0.5% DMSO was considered as the control value (no inhibition).

First: CC(=O)Nc1ncc(CN2CCc3nc(N)sc3CC2)s1 (racemic) [Example 151, N-(5-((2-AMINO-4,5,7,8-TETRAHYDRO-6H-THIAZOLO[4,5-D]AZEPIN-6-YL)METHYL)THIAZOL-2-YL)ACETAMIDE]
Second: CC(=O)Nc1ncc(CN2CCc3nc(C)sc3CC2)s1 (racemic) [Example 26, N-(5-((2-METHYL-4,5,7,8-TETRAHYDRO-6H-THIAZOLO[4,5-D]AZEPIN-6-YL)METHYL)THIAZOL-2-YL)ACETAMIDE]
The IC50 of the first is higher: 50 to 200 nM for the first, < 50 nM for the second.

First: CC(c1ccc2scnc2c1)N1CCCc2nn(C)cc2C1 (racemic) [Example 165, 5-(1-(2-METHYL-2,6,7,8-TETRAHYDROPYRAZOLO[4,3-C]AZEPIN-5(4H)-YL)ETHYL)BENZO[D]THIAZOLE]
Second: CC(c1ccc2scnc2c1)N1CCc2cn(C)nc2CC1 (racemic) [Example 1, 5-(1-(2-METHYL-4,5,7,8-TETRAHYDROPYRAZOLO[3,4-D]AZEPIN-6(2H)-YL)ETHYL)BENZO[D]THIAZOLE]
The IC50 of the first is higher: 200 to 1000 nM for the first, < 50 nM for the second. The second is the more potent here.

First: CC(=O)Nc1nc2c(s1)CCN(C(C)c1ccc3scnc3c1)CC2 (racemic) [Example 16]
Second: CC(=O)Nc1nc2c(s1)CN(C(C)c1ccc3scnc3c1)CCC2 (racemic) [Example 152]
The IC50 of the first is lower: < 50 nM for the first, 200 to 1000 nM for the second.

First: CC(=O)Nc1nc2c(s1)CCN(C(C)c1ccc3scnc3c1)CC2 (single isomer, unassigned) [Example 163]
Second: Cc1nc2c(s1)CCN(C(C)c1ccc3scnc3c1)CC2 (racemic) [Example 14, 6-(1-(BENZO[D]THIAZOL-5-YL)ETHYL)-2-METHYL-5,6,7,8-TETRAHYDRO-4H-THIAZOLO[4,5-D]AZEPINE]
The IC50 of the first is higher: 200 to 1000 nM for the first, < 50 nM for the second. The second is the more potent here.

First: CC(=O)Nc1nc2c(s1)CCN(C(C)c1ccc3scnc3c1)CC2 (single isomer, unassigned) [Example 162]
Second: CC(c1ccc2scnc2c1)N1CCc2nc[nH]c2CC1 (racemic) [Example 161]
The IC50 of the first is lower: < 50 nM for the first, 50 to 200 nM for the second. The first is the more potent here.

`CC(=O)Nc1ncc(CN2CCc3nncn3CC2)s1` (racemic) [Example 154] and `CC(=O)Nc1ncc(CN2CCc3cn(C)nc3CC2)s1` (racemic) [Example 23, N-(5-((2-METHYL-4,5,7,8-TETRAHYDROPYRAZOLO[3,4-D]AZEPIN-6(2H)-YL)METHYL)THIAZOL-2-YL)ACETAMIDE] cannot be ordered by IC50: < 50 nM for the first, < 50 nM for the second.

`CC(c1ccc2scnc2c1)N1CCc2c([Si](C)(C)C)nn(C)c2CC1` (racemic) [Example 48, 5-(1-(1-METHYL-3-(TRIMETHYLSILYL)-4,5,7,8-TETRAHYDROPYRAZOLO[3,4-D]AZEPIN-6(1H)-YL)ETHYL)BENZO[D]THIAZOLE] and `CC(c1ccc2scnc2c1)N1CCc2c(-c3ccccc3)nn(C)c2CC1` (racemic) [Example 47, 5-(1-(1-METHYL-3-PHENYL-4,5,7,8-TETRAHYDROPYRAZOLO[3,4-D]AZEPIN-6(1H)-YL)ETHYL)BENZO[D]THIAZOLE] cannot be ordered by IC50: < 50 nM for the first, < 50 nM for the second.

`Cc1nc2c(s1)CCN(C(C)c1ccc3c(c1)OCC3)CC2` (racemic) [Example 20, 6-(1-(2,3-DIHYDROBENZOFURAN-6-YL)ETHYL)-2-METHYL-5,6,7,8-TETRAHYDRO-4H-THIAZOLO[4,5-D]AZEPINE] and `CC(c1ccc2scnc2c1)N1CCc2nn(C)c(-c3ccccc3)c2CC1` (racemic) [Example 46, 5-(1-(2-METHYL-3-PHENYL-4,5,7,8-TETRAHYDROPYRAZOLO[3,4-D]AZEPIN-6(2H)-YL)ETHYL)BENZO[D]THIAZOLE] cannot be ordered by IC50: < 50 nM for the first, < 50 nM for the second.
